Experimental data from ChEMBL document CHEMBL1201862, “PubChem BioAssay data set” (2004).
The source made the active and inactive calls.

How the values were obtained:
Type in all cases: functional
[1] = biological target: T1, High affinity choline transporter 1 (Homo sapiens, UniProt Q9GZV3); assay: inhibitors of CHT choline uptake, dose response, cell-based, 3H-choline uptake, CHT LV-AA trafficking mutant, CRC (AID 602208)
T1 sequence (Q9GZV3 whole entry): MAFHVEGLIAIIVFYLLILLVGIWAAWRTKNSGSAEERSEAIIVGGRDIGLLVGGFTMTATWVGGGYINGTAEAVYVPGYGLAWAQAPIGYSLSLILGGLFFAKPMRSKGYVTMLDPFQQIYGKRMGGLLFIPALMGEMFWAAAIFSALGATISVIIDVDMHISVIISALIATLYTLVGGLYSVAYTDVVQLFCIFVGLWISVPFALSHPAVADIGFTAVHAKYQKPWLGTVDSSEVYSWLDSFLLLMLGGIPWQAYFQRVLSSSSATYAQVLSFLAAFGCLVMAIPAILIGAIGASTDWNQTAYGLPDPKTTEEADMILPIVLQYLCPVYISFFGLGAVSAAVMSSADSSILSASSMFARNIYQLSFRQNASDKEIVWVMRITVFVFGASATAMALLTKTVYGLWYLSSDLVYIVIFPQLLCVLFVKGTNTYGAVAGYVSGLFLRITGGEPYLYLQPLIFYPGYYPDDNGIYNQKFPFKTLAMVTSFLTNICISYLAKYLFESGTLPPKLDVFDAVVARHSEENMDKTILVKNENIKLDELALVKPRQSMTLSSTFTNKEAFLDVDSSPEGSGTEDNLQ

[2] = biological target: T1, High affinity choline transporter 1; assay: CHT inhibitors, dose response, cell-based, 5-point CRC, membrane potential dye (AID 504840)
[3] = biological target: T1, High affinity choline transporter 1; assay: CHT inhibitors, dose response, cell-based, 10-point CRC, membrane potential dye (AID 588401);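 also: membrane potential dye fluorescence of choline-evoked depolarization via CHT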
Orexin receptor type 2 [4] = biological target: T2, Orexin receptor type 2 (Homo sapiens, UniProt O43614); assay: Counterscreen assay for antagonists of the orexin 1 receptor (OX1R; HCRTR1): Fluorescence-based cell-based dose response assay for antagonists of the orexin 2 receptor (OX2R; HCRTR2), run by assay provider.
T2 sequence (O43614 whole entry): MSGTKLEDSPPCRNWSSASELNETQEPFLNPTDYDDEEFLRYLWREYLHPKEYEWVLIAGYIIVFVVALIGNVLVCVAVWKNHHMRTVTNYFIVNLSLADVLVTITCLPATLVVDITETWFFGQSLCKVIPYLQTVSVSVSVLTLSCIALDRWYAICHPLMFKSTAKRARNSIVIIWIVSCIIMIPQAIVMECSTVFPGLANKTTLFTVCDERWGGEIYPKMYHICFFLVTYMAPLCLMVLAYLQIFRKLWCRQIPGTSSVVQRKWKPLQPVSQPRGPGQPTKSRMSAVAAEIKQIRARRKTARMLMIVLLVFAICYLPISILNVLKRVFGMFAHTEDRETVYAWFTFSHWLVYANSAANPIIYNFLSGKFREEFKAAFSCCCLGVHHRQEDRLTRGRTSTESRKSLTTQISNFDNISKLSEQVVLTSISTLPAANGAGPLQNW

[5] = biological target: T3, Orexin/Hypocretin receptor type 1 (Homo sapiens, UniProt O43613); assay: Homogeneous Time Resolved Fluorescence (HTRF)-based cell-based high throughput dose response assay for antagonists of the orexin 1 receptor (OX1R; HCRTR1). [Related pubchem assays (depositor defined):AID434989, AID435008, AID463079, AID485270, AID492963, AID492964, AID492965, AID493232, AID504717, AID504718]
T3 sequence (O43613 whole entry): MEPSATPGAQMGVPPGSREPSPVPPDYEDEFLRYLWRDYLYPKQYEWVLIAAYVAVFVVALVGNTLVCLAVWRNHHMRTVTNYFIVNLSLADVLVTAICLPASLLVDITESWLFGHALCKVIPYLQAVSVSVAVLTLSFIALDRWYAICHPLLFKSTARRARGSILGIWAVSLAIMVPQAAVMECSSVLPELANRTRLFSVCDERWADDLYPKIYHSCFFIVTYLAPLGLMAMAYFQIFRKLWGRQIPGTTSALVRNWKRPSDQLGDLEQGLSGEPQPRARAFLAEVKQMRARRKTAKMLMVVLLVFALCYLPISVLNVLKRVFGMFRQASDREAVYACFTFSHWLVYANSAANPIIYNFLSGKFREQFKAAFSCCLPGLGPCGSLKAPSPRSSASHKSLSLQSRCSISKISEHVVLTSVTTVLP

[6] = biological target: T3, Orexin/Hypocretin receptor type 1; assay: Fluorescence-based cell-based high throughput dose response assay for antagonists of the orexin 1 receptor (OX1R; HCRTR1). [Related pubchem assays (depositor defined):AID434989, AID435008, AID463079, AID485270, AID492963, AID492964, AID492965, AID493232, AID504717, AID504718]
[7] = (§1) Counterscreen for antagonists of the orexin 1 receptor (OX1R; HCRTR1): Fluorescence-based cell-based high throughput dose response assay to identify antagonists of the parental CHO cell line. [Related pubchem assays (depositor defined):AID434989, AID435008, AID463079, AID485270, AID492963, AID492964, AID492965, AID493232, AID504699, AID504701]
CHO-K1 = assay: as §1, with “Homogeneous time resolved fluorescence (HTRF)-based” for “Fluorescence-based”, “cell-based” for “cell-based high throughput”, “CHO-K1” for “CHO”; details: Cricetulus griseus;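 also: potency for inhibition of ATP-stimulated IP1 production as antagonists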
Orexin receptor type 2 [8] = biological target: T2, Orexin receptor type 2; assay: Counterscreen assay for antagonists of the orexin 1 receptor (OX1R; HCRTR1): Homogeneous Time Resolved Fluorescence (HTRF)-based cell-based dose response assay for antagonists of the orexin 2 receptor (OX2R; HCRTR2), run by assay provider.
[9] = biological target: 26S proteasome non-ATPase regulatory subunit 14 (Homo sapiens, UniProt O00487); assay: inhibition of proteasome subunit RPN11 – biochemical, fluorescence polarization, uHTS hits, confirmation (AID 602368)
Prothrombin = Prothrombin (Bos taurus, UniProt P00735); assay: thrombin inhibition, dose response, biochemical, fluorescence polarization, uHTS hits (AID 602369)
[10] = biological target: 72 kDa type IV collagenase (Homo sapiens, UniProt P08253); assay: Dose Response validation of uHTS RPN11 inhibitor hits using a MMP-2 Fluorescence assay.
[11] = biological target: Ras and Rab interactor 1/Tyrosine-protein kinase ABL1 (Homo sapiens, UniProt P00519+Q13671);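 also: biochemical TR-FRET dose-response test measuring inhibition of binding between Rin1 and Abl proteins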
Aurora kinase B = Aurora kinase B (Homo sapiens, UniProt Q96GD4)
Aurora kinase A = biological target: T4, Aurora kinase A (Homo sapiens, UniProt O14965);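 also: value from the Navigating the Kinome kinase panel profiling, panel entry STK6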
T4 sequence (O14965 whole entry): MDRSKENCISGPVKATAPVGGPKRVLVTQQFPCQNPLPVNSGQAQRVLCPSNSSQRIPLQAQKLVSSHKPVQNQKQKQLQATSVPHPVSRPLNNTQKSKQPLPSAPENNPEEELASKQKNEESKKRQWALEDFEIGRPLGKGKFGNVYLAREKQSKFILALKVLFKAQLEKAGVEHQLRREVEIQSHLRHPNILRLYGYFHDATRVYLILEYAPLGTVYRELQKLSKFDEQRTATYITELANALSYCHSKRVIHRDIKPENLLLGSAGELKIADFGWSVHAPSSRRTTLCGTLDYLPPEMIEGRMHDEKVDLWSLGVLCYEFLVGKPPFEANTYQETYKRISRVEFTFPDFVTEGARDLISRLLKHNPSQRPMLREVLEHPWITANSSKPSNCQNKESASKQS

[12] = biological target: Vascular endothelial growth factor receptor 2 (Homo sapiens, UniProt P35968)
Sequence of Vascular endothelial growth factor receptor 2 (P35968 whole entry): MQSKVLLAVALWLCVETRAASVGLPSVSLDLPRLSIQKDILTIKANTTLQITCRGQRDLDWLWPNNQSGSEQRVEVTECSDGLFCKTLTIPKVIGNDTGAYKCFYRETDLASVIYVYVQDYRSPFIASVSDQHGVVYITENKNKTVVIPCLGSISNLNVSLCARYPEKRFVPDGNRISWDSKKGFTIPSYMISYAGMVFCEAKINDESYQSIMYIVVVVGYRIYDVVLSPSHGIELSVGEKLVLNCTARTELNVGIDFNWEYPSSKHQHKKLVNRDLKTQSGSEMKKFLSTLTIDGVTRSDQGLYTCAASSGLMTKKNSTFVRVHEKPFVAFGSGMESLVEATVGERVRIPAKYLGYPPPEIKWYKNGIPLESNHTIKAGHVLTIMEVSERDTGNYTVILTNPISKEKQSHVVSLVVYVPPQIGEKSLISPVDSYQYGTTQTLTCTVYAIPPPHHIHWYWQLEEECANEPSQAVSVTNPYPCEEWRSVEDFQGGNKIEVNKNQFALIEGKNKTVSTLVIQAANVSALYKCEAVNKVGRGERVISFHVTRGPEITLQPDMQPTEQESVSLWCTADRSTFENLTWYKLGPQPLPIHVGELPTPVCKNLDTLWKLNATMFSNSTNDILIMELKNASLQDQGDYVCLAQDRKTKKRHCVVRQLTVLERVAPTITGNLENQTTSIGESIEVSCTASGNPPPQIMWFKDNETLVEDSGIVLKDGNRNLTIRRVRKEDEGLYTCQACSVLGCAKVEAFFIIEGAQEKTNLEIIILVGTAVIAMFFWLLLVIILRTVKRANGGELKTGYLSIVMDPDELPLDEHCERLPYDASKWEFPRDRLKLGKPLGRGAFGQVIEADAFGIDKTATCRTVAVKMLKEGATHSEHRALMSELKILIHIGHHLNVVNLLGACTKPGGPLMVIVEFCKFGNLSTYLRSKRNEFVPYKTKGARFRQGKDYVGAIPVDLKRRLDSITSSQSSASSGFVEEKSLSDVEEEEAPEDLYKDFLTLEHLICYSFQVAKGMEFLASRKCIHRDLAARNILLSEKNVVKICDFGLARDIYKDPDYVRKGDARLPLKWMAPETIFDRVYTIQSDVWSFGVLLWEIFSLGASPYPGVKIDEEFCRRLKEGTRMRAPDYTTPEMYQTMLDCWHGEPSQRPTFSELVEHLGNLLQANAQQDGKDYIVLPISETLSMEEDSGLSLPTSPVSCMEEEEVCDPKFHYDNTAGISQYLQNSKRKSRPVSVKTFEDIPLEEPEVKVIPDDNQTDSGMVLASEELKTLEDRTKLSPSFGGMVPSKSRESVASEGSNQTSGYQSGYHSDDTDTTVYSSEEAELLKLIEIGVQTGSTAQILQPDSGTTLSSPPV

Sequence of 72 kDa type IV collagenase (P08253 whole entry): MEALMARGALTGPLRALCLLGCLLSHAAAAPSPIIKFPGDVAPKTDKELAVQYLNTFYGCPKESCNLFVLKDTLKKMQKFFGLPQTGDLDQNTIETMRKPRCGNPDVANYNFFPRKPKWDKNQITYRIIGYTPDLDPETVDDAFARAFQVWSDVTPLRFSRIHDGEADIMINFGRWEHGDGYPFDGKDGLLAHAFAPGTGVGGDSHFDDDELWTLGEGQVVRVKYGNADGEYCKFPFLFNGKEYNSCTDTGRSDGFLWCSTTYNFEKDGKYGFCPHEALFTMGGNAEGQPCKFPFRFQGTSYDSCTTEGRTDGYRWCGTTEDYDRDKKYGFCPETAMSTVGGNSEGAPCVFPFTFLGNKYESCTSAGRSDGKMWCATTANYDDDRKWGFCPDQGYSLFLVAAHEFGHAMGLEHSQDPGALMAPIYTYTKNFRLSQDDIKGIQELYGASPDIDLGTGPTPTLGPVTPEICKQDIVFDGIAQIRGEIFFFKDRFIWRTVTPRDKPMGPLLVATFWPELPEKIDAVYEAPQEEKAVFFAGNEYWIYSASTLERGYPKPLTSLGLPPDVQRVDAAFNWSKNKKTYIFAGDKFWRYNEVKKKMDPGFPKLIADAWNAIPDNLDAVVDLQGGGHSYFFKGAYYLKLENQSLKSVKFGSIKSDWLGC
Sequence of Ras and Rab interactor 1/Tyrosine-protein kinase ABL1 (P00519 whole entry): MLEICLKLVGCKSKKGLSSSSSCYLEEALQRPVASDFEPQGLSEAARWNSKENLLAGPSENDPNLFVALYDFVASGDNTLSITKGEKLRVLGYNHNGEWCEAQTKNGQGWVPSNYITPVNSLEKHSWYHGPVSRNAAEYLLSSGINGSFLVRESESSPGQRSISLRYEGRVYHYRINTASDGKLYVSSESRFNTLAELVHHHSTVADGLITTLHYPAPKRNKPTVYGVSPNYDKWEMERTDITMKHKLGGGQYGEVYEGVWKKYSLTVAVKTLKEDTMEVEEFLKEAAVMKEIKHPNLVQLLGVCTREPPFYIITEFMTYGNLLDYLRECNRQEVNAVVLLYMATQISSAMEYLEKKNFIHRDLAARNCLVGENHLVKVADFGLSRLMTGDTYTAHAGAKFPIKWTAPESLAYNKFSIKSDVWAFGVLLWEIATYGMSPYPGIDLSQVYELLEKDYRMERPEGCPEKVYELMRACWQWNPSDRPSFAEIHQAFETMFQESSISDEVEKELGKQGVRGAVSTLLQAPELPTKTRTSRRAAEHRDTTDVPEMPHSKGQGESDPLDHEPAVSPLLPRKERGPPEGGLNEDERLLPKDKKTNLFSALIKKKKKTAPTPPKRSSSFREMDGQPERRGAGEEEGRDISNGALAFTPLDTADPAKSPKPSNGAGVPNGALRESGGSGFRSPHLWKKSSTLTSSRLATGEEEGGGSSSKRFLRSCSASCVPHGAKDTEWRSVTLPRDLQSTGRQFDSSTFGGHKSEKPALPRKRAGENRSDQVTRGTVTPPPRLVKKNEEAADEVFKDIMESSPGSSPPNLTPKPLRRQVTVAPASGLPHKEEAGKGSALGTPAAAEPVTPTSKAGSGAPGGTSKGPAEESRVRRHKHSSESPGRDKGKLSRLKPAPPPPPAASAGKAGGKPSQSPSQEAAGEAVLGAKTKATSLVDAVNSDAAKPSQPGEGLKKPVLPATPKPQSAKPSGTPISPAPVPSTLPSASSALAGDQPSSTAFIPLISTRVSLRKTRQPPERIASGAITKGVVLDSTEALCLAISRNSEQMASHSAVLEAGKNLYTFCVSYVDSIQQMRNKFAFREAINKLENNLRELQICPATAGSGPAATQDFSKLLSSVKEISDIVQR
Sequence of Ras and Rab interactor 1/Tyrosine-protein kinase ABL1 (Q13671 whole entry): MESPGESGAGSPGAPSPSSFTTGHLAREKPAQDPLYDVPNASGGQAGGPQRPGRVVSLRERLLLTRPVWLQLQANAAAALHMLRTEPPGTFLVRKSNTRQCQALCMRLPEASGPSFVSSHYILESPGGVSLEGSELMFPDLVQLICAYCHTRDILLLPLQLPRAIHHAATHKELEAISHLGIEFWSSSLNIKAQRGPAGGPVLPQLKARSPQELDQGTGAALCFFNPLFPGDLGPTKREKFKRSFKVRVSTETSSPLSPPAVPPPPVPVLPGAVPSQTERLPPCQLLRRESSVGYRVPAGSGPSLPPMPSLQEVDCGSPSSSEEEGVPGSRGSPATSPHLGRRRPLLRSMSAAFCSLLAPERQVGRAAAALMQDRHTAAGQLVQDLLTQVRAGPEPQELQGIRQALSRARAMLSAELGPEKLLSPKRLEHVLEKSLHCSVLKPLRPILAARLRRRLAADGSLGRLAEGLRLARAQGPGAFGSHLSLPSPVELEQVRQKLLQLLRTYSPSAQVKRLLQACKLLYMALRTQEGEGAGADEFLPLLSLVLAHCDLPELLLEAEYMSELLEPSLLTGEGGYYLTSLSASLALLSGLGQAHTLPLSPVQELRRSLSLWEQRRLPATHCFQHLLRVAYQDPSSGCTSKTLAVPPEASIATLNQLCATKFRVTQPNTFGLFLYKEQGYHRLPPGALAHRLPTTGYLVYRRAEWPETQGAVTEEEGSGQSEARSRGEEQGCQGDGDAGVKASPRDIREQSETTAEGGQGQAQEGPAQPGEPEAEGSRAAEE
Sequence of 26S proteasome non-ATPase regulatory subunit 14 (O00487 whole entry): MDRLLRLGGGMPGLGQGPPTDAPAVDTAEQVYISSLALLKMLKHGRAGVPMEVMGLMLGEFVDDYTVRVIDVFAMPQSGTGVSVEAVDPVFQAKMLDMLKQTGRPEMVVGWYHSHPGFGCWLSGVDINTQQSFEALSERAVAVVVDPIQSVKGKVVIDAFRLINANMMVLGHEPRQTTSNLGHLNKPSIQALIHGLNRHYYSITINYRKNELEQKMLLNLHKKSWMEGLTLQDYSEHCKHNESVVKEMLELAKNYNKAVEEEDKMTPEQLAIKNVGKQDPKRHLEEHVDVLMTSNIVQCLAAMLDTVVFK
Sequence of Aurora kinase B (Q96GD4 whole entry): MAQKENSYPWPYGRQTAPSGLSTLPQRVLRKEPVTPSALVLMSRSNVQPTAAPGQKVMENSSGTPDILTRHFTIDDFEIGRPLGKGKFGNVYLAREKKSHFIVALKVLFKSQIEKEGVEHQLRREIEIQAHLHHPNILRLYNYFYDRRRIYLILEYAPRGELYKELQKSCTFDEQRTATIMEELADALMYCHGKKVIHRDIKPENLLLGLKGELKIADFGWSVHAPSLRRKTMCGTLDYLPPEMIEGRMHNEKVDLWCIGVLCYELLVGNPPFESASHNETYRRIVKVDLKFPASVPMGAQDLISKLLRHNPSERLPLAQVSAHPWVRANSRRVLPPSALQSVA

SMILES: CC(NC(=O)c1ccc(OC2CCN(Cc3ccccn3)CC2)cc1)c1ccccc1 (configuration not stated)
- IC50 [1]: 1.79 µM (active)
- IC50 [2]: 1.6 µM (active)
- IC50 [3]: 1.26 µM (active)

SMILES: O=c1c2ccccc2nc2c3ccccc3c(NCc3ccccn3)nn12
- IC50 (Orexin receptor type 2 [4]): > 88.8 µM (inactive)
- IC50 [5]: 4.96 µM (active)
- IC50 [6]: 16.7 µM (inactive)
- IC50 [7]: > 49.7 µM (inactive)
- IC50 (CHO-K1): > 66.2 µM (inactive)
- IC50 (Orexin receptor type 2 [8]): > 50 µM (inactive)

SMILES: Cc1cc(C)c2cc3c(N)c(C(=O)Nc4c(C)nc(O)nc4O)sc3nc2c1
- IC50 [9]: 13.2 µM (active)
- IC50 (Prothrombin): 15.5 µM (active)
- IC50 [10]: > 100 µM (inactive)

SMILES: N#Cc1ccccc1Sc1ccccc1C(=O)NCC(c1ccco1)N1CCCC1 (configuration not stated)
- IC50 [11]: 2.48 µM (active)

SMILES: COc1cc(Nc2ncc(C(F)(F)F)c(OC)n2)cc(OC)c1OC
- Ki (Aurora kinase B): 0.0158 µM (active)
- Ki (Aurora kinase A): 0.0501 µM (active)
- Ki [12]: 0.631 µM (active)

SMILES: Cc1ccsc1/C=N/N=C1\C(=O)Nc2ccccc21
- IC50 (Orexin receptor type 2 [4]): > 88.8 µM (inactive)
- IC50 [5]: 2.36 µM (active)
- IC50 [6]: 8.44 µM (active)
- IC50 [7]: > 49.7 µM (inactive)
- IC50 (CHO-K1): 46.8 µM (inactive)
- IC50 (Orexin receptor type 2 [8]): > 50 µM (inactive)
